Experimental data: publication PMC6268073, “Synthesis and Antiplasmodial Activity of Betulinic Acid and Ursolic Acid Analogues” (Molecules, 2012)
Entries after “also recorded” stand apart in the source; their conditions may differ. Read-outs that look alike come from different tables or passages of the source.

What was measured:
HEK293T cells = experiment: Cytotoxicity assay, dihydroethidium staining, flow cytometry; format: cell-based, human; details: for Cytotoxicity judgement in words / IC50: HEK293T; for Cytotoxicity judgement in words: tested concentrations 0.001-100 µM; for IC50: Homo sapiens, HEK-293T; for Selectivity Index (SI) 48 h: HEK293T IC50 versus P. falciparum 3D7 IC50, 48 h
Method: (§1) Human embryonic kidney (HEK293T) cells were cultured in surface area 75 cm^2 (Greiner Bio-One, Frickenhausen, Germany) vented tissue culture flasks at 37 °C in a humidified atmosphere containing 5% CO2 in Dulbecco’s modified essential medium (Gibco/Life Technologies, Grand Island, NY, USA) supplemented with 10% (v/v) foetal bovine serum, 100 U/mL penicillin and 100 µg/mL streptomycin. After 24 h, 50 µl of each drug was added with 0.5% DMSO or methanol to a single well. The cells were incubated with the test drugs for an additional 24 and 48 h and then harvested with trypsin, gently pelleted by centrifugation and re-suspended in PBS. The cells were stained with dihydroethidium solution (10 mg/mL in phosphate buffered saline), gently vortexed and incubated for 40 min at 37 °C in the dark. Ten thousand gated events were acquired for each sample (FACSCalibur BD and CellQuest software was used for analysis).

[1] = tested on: P. falciparum chloroquine-sensitive 3D7 strain; experiment: Antiplasmodial assay, microdilution in vitro, flow cytometry; format: cell-based, Plasmodium falciparum; details: for Antiplasmodial activity grade in words: P. falciparum 3D7; for IC50: Plasmodium falciparum
Method: The strains were maintained in human erythrocytes in a gas mixture containing 5% O2, 5% CO2 and 90% N2 [24]. The culture was synchronised by 10% sorbitol treatment. The antimalarial activity was measured using the microdilution technique in vitro. […] Samples were dissolved in water, dimethylsulfoxide (DMSO) or methanol and serially diluted with the culture medium. To evaluate parasitemia, Giemsa staining and flow cytometric analysis were used. The concentration of the drug required to inhibit parasite growth was determined by comparing the fluorescence incorporated into the treated and untreated cultures (control). The concentration causing 50% inhibition (IC50) was determined from the drug concentration response curve.

Plasmodium 3D7 strain = tested on: Plasmodium 3D7 strain; parameters: method as in PMID 14697777; details: 3D7 strain ref 7; read-out: IC50 anti-Plasmodium 3D7 strain; cited from earlier work
P. berghei = tested on: P. berghei; parameters: method as in PMID 10190183; details: 250 mg/kg/day ref 6; cited from earlier work
[2] = tested on: P. falciparum (3D7) isolated parasites; experiment: Cytosolic calcium in isolated parasites loaded with Fluo4/AM (spectrofluorimetry); format: cell-based, Plasmodium falciparum; details: 2c 100 µM
Method: Erythrocytes (RBCs) infected by P. falciparum (3D7) at the trophozoite stage were lysed with 10 mg/mL saponin (in phosphate-buffered saline) in the presence of 20 µg/mL protease inhibitors (pepstatin A, leupeptin, antipain and chymostatin) and benzamidine (0.5 mmol/L). Erythrocyte membranes were then removed through centrifugation (8700 rpm for 10 min at 4 °C). The parasites were washed three times in buffer M (116 mM NaCl, 5.4 mM KCl, 0.8 mM MgSO4, 5.5 mM D-glucose, 50 mM MOPS, pH 7.3) with CaCl2 (2 mM). The parasites were then re-suspended in the same buffer with Fluo4-AM (5 μM) probenecid (1.8 mM), an inhibitor of organic anion transport (to prevent dye sequestration and release), […] protease inhibitors (pepstatin A, leupeptin, antipain and chymostatin) and benzamidine (0.5 mmol/L) for 50 min at 37 °C. The parasite suspension was then washed three times with buffer M. Spectrofluorimetric measurements were performed in a Shimadzu RF-5301 PC instrument at 37 °C with isolated P. falciparum (3D7) parasites (10^8 cells mL^−1) incubated with MOPS buffer in a 1 mL cuvette. Compound 2c (100 μM) and THG (10 μM) were added during time course experiments, and excitation/emission wavelengths were adjusted to 505/530 nm for Fluo4-AM. Methanol (0.05%) was used as a control. […]

[3] = Cytotoxicity assay, dihydroethidium staining, flow cytometry; format: cell-based, human; details: human
Method: as §1

[4] = tested on: P. falciparum chloroquine-sensitive Thai strain; parameters: method as in PMID 17967541; details: chloroquine-sensitive Thai strain ref 10; cited from earlier work
[5] = 24 h, read-out: IC50 (µM) HEK293T 24 h
[6] = 48 h, read-out: IC50 (µM) HEK293T 48 h
[7] = chloroquine-sensitive 3D7 strain, 48 h incubation, n = 3, read-out: IC50 (µM) P. falciparum 3D7
[8] = chloroquine-sensitive 3D7 strain, 48 h incubation, values in nM, read-out: IC50 P. falciparum 3D7

Row | Structure (SMILES) | IC50 (HEK293T cells; [5]) [µM] | IC50 (HEK293T cells; [6]) [µM] | Antiplasmodial activity grade in words [1] | IC50 [1, 7] [µM] | Selectivity Index (SI) 48 h (HEK293T cells) | other results
1 | C=C(C)[C@@H]1CC[C@]2(C(=O)O)CC[C@]3(C)[C@H](CC[C@@H]4[C@@]5(C)CC[C@H](OC(C)=O)C(C)(C)[C@@H]5CC[C@]43C)[C@@H]12 [1a, 3-O-Acetylbetulinic acid] | > 100 | > 100 | good activity | 4 |  | Cytotoxicity judgement in words (HEK293T cells): not toxic; also recorded: not cytotoxic at the tested concentrations
2 | C=C(C)[C@@H]1CC[C@]2(C(=O)OC)CC[C@]3(C)[C@H](CC[C@@H]4[C@@]5(C)CC[C@H](O)C(C)(C)[C@@H]5CC[C@]43C)[C@@H]12 [methyl betulinate, reference compound] |  |  |  |  |  | IC50 (Plasmodium 3D7 strain): 7 µM
3 | C=C(C)[C@@H]1CC[C@]2(C(=O)O)CC[C@]3(C)[C@H](CC[C@@H]4[C@@]5(C)CC[C@H](O)C(C)(C)[C@@H]5CC[C@]43C)[C@@H]12 [compound 1, Betulinic acid] |  |  | moderate activity | 18 |  | IC50 (Plasmodium 3D7 strain): 13.9 µM; Efficacy in murine malarial model of P. berghei (P. berghei): ineffective
4 | CC(=O)OC1CCC2(C)C(CCC3(C)C2CC=C2C4C(C)C(C)CCC4(C(=O)NCCCN4CCN(CCCN)CC4)CCC23C)C1(C)C (centres unmarked) [2c] | 4 | 4 | excellent activity | 0.175 | 23 | Effect on parasite calcium homeostasis, in words ([2]; followed by THG 10 µM): can modulate parasite calcium homeostasis; also recorded: led to an increase in intracellular ion concentrations in P. falciparum; Ca2+ concentration, Fluo4/AM fluorescence after addition of compound ([2]; isolated parasites 10^8 cells mL-1, mean ± SEM, n = 9, P = 0.0004 vs methanol 0.05%): 104.9 a.u.; IC50 ([3]; HEK293T cells, HEK293T, time not stated, read-out: IC50 cytotoxicity HEK293T): 4 µM; Cytotoxicity judgement in words (HEK293T cells): non-toxic; IC50 [4]: 0.167 µM; IC50 [1, 8]: 0.175 to 0.22 µM
5 | C=C(C)[C@@H]1CC[C@]2(C(=O)NCCCN3CCN(CCCNC(=O)OC(C)(C)C)CC3)CC[C@]3(C)C(CCC4[C@@]5(C)CC[C@H](OC(C)=O)C(C)(C)C5CC[C@]43C)C12 (some centres unmarked) [1b, N-{3-[4-(3-Aminopropyl)piperazinopropyl]terbutylcarbamate}-3-acetylbetulinamide] | 4 | 4 | good activity | 5 | 0.8 | melting point: 129 °C; IC50 [3]: 4 µM
6 | C[C@H]1[C@H](C)CC[C@]2(C(=O)O)CC[C@]3(C)C(=CC[C@@H]4[C@@]5(C)CC[C@H](O)C(C)(C)[C@@H]5CC[C@]43C)[C@H]12 [compound 2, Ursolic acid] |  |  | inactive | 36 |  | 
7 | C=C(C)[C@@H]1CC[C@]2(C(=O)NCCCN3CCN(CCCN)CC3)CC[C@]3(C)C(CCC4[C@@]5(C)CC[C@H](OC(C)=O)C(C)(C)C5CC[C@]43C)C12 (some centres unmarked) [1c, N-{3-[4-(3-aminopropyl)piperazinyl]propyl}-3-acetylbetulinamide] | 4 | 4 | excellent activity | 0.22 | 18 | melting point: 120 °C; IC50 [3]: 4 µM; IC50 [1, 8]: 0.175 to 0.22 µM
8 | CC(=O)O[C@H]1CC[C@@]2(C)C(CC[C@]3(C)C2CC=C2C4[C@@H](C)[C@H](C)CC[C@]4(C(=O)O)CC[C@]23C)C1(C)C (some centres unmarked) [2a] |  |  |  | 14 |  | 
9 | CC(=O)O[C@H]1CC[C@@]2(C)C(CC[C@]3(C)C2CC=C2C4[C@@H](C)[C@H](C)CC[C@]4(C(=O)NCCCN4CCN(CCCNC(=O)OC(C)(C)C)CC4)CC[C@]23C)C1(C)C (some centres unmarked) [2b] |  |  |  | 15 |  | 
10 | CCN(CC)CCCC(C)Nc1ccnc2cc(Cl)ccc12 (centres unmarked) [chloroquine, reference compound] |  |  |  |  |  | IC50 ([1]; 3D7, 48 h, read-out: IC50 P. falciparum 3D7): 0.029 µM
